Reference: US10544120B2, “Biaryl kinase inhibitors” (BRISTOL-MYERS SQUIBB COMPANY, priority 2015, dated 2020)

molecular target: GST-Xa-hAAK1 (Homo sapiens (Human), UniProt Q2M2I8); assay: AAK1 Kinase Assay; type: biochemical; conditions: bacterially expressed GST-Xa-hAAK1 3.5 nM; ATP 22 μM; fluoresceinated peptide 1.5 μM; 3 hours at room temperature; Caliper LabChip 3000
Experimental: The assays were performed in U-bottom 384-well plates. […] The reactions were initiated by the combination of bacterially expressed, GST-Xa-hAAK1 with substrates and test compounds. The reactions were incubated at room temperature for 3 hours and terminated by adding 60 μl of 35 mM EDTA buffer to each sample. The reactions were analyzed on the Caliper LabChip 3000 (Caliper, Hopkinton, Mass.) by electrophoretic separation of the fluorescent substrate and phosphorylated product. […] Compounds were dissolved at 10 mM in dimethylsulfoxide (DMSO) and evaluated at eleven concentrations. IC50 values were derived by non-linear regression analysis.

GST-Xa-hAAK1, sequence (Q2M2I8 whole entry): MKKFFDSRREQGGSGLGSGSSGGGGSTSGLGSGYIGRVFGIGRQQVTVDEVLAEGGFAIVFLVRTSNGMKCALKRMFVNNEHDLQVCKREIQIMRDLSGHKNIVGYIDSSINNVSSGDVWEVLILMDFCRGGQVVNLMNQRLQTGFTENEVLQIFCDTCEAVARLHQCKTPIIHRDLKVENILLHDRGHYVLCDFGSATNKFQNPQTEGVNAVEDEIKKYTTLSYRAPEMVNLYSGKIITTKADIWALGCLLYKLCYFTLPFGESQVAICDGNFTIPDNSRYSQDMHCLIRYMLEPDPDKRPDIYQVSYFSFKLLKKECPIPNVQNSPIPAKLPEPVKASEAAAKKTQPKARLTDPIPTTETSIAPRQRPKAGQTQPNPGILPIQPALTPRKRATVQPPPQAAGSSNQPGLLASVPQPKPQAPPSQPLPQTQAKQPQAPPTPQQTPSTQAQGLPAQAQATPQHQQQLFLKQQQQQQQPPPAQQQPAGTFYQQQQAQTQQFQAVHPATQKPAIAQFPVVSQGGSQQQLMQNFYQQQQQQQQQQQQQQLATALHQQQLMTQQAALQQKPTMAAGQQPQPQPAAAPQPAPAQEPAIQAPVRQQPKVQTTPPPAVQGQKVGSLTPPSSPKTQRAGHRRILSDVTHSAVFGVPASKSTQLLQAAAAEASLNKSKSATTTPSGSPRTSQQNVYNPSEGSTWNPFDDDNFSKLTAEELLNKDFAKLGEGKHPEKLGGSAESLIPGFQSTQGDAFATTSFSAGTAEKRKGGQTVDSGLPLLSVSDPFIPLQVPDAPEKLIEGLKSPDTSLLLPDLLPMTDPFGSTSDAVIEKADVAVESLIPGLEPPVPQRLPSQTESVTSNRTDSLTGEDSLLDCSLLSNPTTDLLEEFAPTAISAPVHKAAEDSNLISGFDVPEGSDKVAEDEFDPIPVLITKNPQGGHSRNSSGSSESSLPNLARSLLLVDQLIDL

| Structure (SMILES) | IC50 |
| --- | --- |
| Cc1nccc(-c2ccc(OCC(N)(CC(C)C)C(F)(F)F)c(C)n2)n1 (single isomer, unassigned) [Example 359, 1,1,1-trifluoro-4-methyl-2-(((2-methyl-6-(2-methylpyrimidin-4-yl)pyridin-3-yl)oxy)methyl)pentan-2-amine] | 865 nM |
| Cc1nccc(-c2ccc(OCC(N)(CC(C)C)C(F)(F)F)c(C)n2)n1 (single isomer, unassigned) [Example 360, 1,1,1-trifluoro-4-methyl-2-(((2-methyl-6-(2-methylpyrimidin-4-yl)pyridin-3-yl)oxy)methyl)pentan-2-amine] | 1250 nM |
| Cc1cc(-c2cc(C(F)(F)F)c(OCC(C)(N)CC(C)C)cn2)ccn1 (stereo in doubt) [Example 164, (R)-2,4-dimethyl-1-((2′-methyl-4-(trifluoromethyl)-[2,4′-bipyridin]-5-yl)oxy)pentan-2-amine] | 254 nM |
| Cc1nccc(-c2cnc(OC[C@](C)(N)CC(C)C)c(C)c2)n1 [Example 263, (R)-2,4-dimethyl-1-((3-methyl-5-(2-methylpyrimidin-4-yl)pyridin-2-yl)oxy)pentan-2-amine] | 950 nM |
| Cc1nccc(-c2cnc(OC[C@@](C)(N)CC(C)C)c(C)c2)n1 [Example 268, (S)-2,4-dimethyl-1-((3-methyl-5-(2-methylpyrimidin-4-yl)pyridin-2-yl)oxy)pentan-2-amine] | 11 nM |
| COC(=O)Nc1cc(-c2ccc(OCC(N)(CC(C)C)C(F)(F)F)c(C)n2)ccn1 (stereo not shown) [Example 273, methyl 5-(2-amino-4-methyl-2-(trifluoromethyl)pentyloxy)-6-methyl-2,4′-bipyridin-2′-ylcarbamate] | 226 nM |
| Cc1nccc(-c2cnc(OCC(N)(CC(C)C)C(F)(F)F)c(C)c2)n1 (stereo not shown) [Example 274, 1,1,1-trifluoro-4-methyl-2-(((3-methyl-5-(2-methylpyrimidin-4-yl)pyridin-2-yl)oxy)methyl)pentan-2-amine] | 986 nM |
| Cc1nccc(-c2ccc(OC[C@@](C)(N)CC(C)C)c(CF)n2)n1 [Example 279] | 23 nM |
| Cc1nccc(-c2cnc(OC[C@@](C)(N)CC(C)C)c(-c3cnco3)c2)n1 [Example 298, (S)-2,4-dimethyl-1-((5-(2-methylpyrimidin-4-yl)-3-(oxazol-5-yl)pyridin-2-yl)oxy)pentan-2-amine] | 45 nM |
| COC(=O)Nc1cc(-c2ccc(OC[C@@](C)(N)CC(C)C)c(C#N)c2)cnn1 [Example 300, (S)-methyl (5-(4-((2-amino-2,4-dimethylpentyl)oxy)-3-cyanophenyl)pyridazin-3-yl)carbamate] | 246 nM |
| COC(=O)Nc1cc(-c2ccc(OC[C@@](C)(N)CC(C)C)c(Cl)c2)cnn1 [Example 301, (S)-methyl (5-(4-((2-amino-2,4-dimethylpentyl)oxy)-3-chlorophenyl)pyridazin-3-yl)carbamate] | 58 nM |
| COC(=O)Nc1nccc(-c2cnc(OC[C@](C)(N)CC(C)C)c(Cl)c2)n1 [Example 304, (R)-methyl(4-(6-((2-amino-2,4-dimethylpentyl)oxy)-5-chloropyridin-3-yl)pyrimidin-2-yl)carbamate] | 298 nM |
| Cc1cc(-c2ccc(OC[C@@](C)(N)CC(C)C)c(Cl)c2)ncn1 [Example 308, (S)-1-(2-chloro-4-(6-methylpyrimidin-4-yl)phenoxy)-2,4-dimethylpentan-2-amine] | 12 nM |
| Cc1cc(-c2ccc(OC[C@@](C)(N)CC(C)C)c(C(F)(F)F)c2)ncn1 [Example 309, (S)-2,4-dimethyl-1-(4-(6-methylpyrimidin-4-yl)-2-(trifluoromethyl)phenoxy)pentan-2-amine] | 8.5 nM |
| COC(=O)Nc1nccc(-c2ccc(OC[C@@](C)(N)CC(C)C)c(F)c2)n1 [Example 310, (S)-methyl (4-(4-((2-amino-2,4-dimethylpentyl)oxy)-3-fluorophenyl)pyrimidin-2-yl)carbamate] | 9.1 nM |
| COC(=O)Nc1nccc(-c2ccc(OC[C@@](C)(N)CC(C)C)c(C)n2)n1 [Example 312, (S)-methyl (4-(5-((2-amino-2,4 dimethylpentyl)oxy)-6-methylpyridin-2-yl)pyrimidin-2-yl)carbamate] | 4.9 nM |
| COc1nccc(-c2ccc(OC[C@@](C)(N)CC(C)C)c(C(F)(F)F)c2)n1 [Example 316, (S)-1-(4-(2-methoxypyrimidin-4-yl)-2-(trifluoromethyl)phenoxy)-2,4-dimethylpentan-2-amine] | 8.2 nM |
| CC(C)C[C@](C)(N)COc1ccc(-c2ccnc(O)n2)cc1C(F)(F)F [Example 317, (S)-4-(4-((2-amino-2,4-dimethylpentyl)oxy)-3 (trifluoromethyl)phenyl)pyrimidin-2-ol] | 103 nM |
| Cc1cc(-c2cc(C(F)F)c(OC[C@@](C)(N)CC(C)C)cn2)ncn1 [Example 318, (S)-1-((4-(difluoromethyl)-6-(6-methylpyrimidin-4-yl)pyridin-3-yl)oxy)-2,4-dimethylpentan-2-amine] | 9.7 nM |
| Cc1cc(-c2ccc(OC[C@@](C)(N)CC(C)C)c(CF)n2)ccn1 [Example 320, (S)-1-((6-(fluoromethyl)-2′-methyl-[2,4′-bipyridin]-5-yl)oxy)-2,4-dimethylpentan-2-amine] | 21 nM |
| CC(C)CC1(COc2ccc(-c3ccnc(C(F)F)c3)nc2C(F)F)CCN1 (stereo not shown) [Example 326, 2′,6-bis(difluoromethyl)-5-((2-isobutylazetidin-2-yl)methoxy)-2,4′-bipyridine] | 42 nM |

More lines, in order of falling IC50, values ahead:

| IC50 | Structure (SMILES) |
| --- | --- |
| 4.8 nM | CC(C)C[C@](C)(N)COc1ccc(-c2ccnc(CF)c2)nc1CF [Example 324, (S)-1-((2′,6-bis(fluoromethyl)-[2,4′-bipyridin]-5-yl)oxy)-2,4-dimethylpentan-2-amine] |
| 3.9 nM | CC(C)C[C@](C)(N)COc1ccc(-c2ccnc(NC(=O)OC(C)C)n2)cc1C(F)(F)F [Example 311, (S)-isopropyl (4-(4-((2-amino-2,4-dimethylpentyl)oxy)-3-(trifluoromethyl)phenyl)pyrimidin-2-yl)carbamate] |
| 2.4 nM | Cc1nc(-c2ccnc(N)n2)ccc1OC[C@@](C)(N)CC(C)C [Example 313, (S)-4-(5-((2-amino-2,4-dimethylpentyl)oxy)-6-methylpyridin-2-yl)pyrimidin-2-amine] |
| 1.9 nM | CC(C)C[C@](C)(N)COc1ccc(-c2cc(N)ncn2)cc1C(F)(F)F [Example 278, (S)-6-(4-((2-amino-2,4-dimethylpentyl)oxy)-3-(trifluoromethyl)phenyl) pyrimidin-4-amine] |
| 1.8 nM | CC(C)C[C@](C)(N)COc1ccc(-c2ccnc(C(F)F)c2)nc1CF [Example 325, (S)-1-((2′-(difluoromethyl)-6-(fluoromethyl)-[2,4′-bipyridin]-5-yl)oxy)-2,4-dimethylpentan-2-amine] |
| 1.5 nM | CC(C)C[C@](C)(N)COc1ccc(-c2ccnc(C(F)F)n2)cc1C#N [Example 315, (S)-2-((2-amino-2,4-dimethylpentyl)oxy)-5-(2-(difluoromethyl)pyrimidin-4-yl)benzonitrile] |
| 1.2 nM | CCOC(=O)Nc1nccc(-c2ccc(OC[C@@](C)(N)CC(C)C)c(C(F)(F)F)c2)n1 [Example 314, (S)-ethyl (4-(4-((2-amino-2,4-dimethylpentyl)oxy)-3-(trifluoromethyl)phenyl)pyrimidin-2-yl)carbamate] |
| 1.1 nM | COC(=O)Nc1cc(-c2ccc(OC[C@@](C)(N)CC(C)C)c(CF)n2)ccn1 [Example 280, (S)-methyl (5-((2-amino-2,4-dimethylpentyl)oxy)-6-(fluoromethyl)-[2,4′-bipyridin]-2′-yl)carbamate] |
| 1.1 nM | CC(C)C[C@](C)(N)COc1ccc(-c2cc(N)ncn2)cc1Cl [Example 285, (S)-6-(4-((2-amino-2,4-dimethylpentyl)oxy)-3-chlorophenyl)pyrimidin-4-amine] |
| 1 nM | COC(=O)Nc1nccc(-c2ccc(OC[C@@](C)(N)CC(C)C)c(C#N)c2)n1 [Example 305, (S)-methyl (4-(4-((2-amino-2,4-dimethylpentyl)oxy)-3-cyanophenyl)pyrimidin-2-yl)carbamate] |
| 0.9 nM | COC(=O)Nc1nccc(-c2ccc(OC[C@@](C)(N)CC(C)C)c(Cl)c2)n1 [Example 307, (S)-methyl (4-(4-((2-amino-2,4-dimethylpentyl)oxy)-3-chlorophenyl)pyrimidin-2-yl)carbamate] |
| 0.8 nM | COC(=O)Nc1nccc(-c2ccc(OC[C@@](C)(N)CC(C)C)c(C(F)F)n2)n1 [Example 323, (S)-methyl (4-(5-((2-amino-2,4-dimethylpentyl)oxy)-6-(difluoromethyl)pyridin-2-yl)pyrimidin-2-yl)carbamate] |
| 0.6 nM | Cc1nccc(-c2ccc(OC[C@@](C)(N)CC(C)C)c(C(F)(F)F)c2)n1 [Example 290, (S)-2,4-dimethyl-1-(4-(2-methylpyrimidin-4-yl)-2-(trifluoromethyl)phenoxy)pentan-2-amine] |
| 0.6 nM | COC(=O)Nc1nccc(-c2ccc(OC[C@@](C)(N)CC(C)C)c(C(F)(F)F)c2)n1 [Example 306, (S)-methyl(4-(4-((2-amino-2,4-dimethylpentyl)oxy)-3-(trifluoromethyl)phenyl)pyrimidin-2-yl)carbamate] |
| 0.5 nM | CC(C)C[C@](C)(N)COc1ccc(-c2ccnc(C(F)F)n2)nc1C(F)F [Example 319, (S)-1-((2-(difluoromethyl)-6-(2-(difluoromethyl)pyrimidin-4-yl)pyridin-3-yl)oxy)-2,4-dimethylpentan-2-amine] |
| 0.3 nM | CC(C)C[C@](C)(N)COc1ccc(-c2ccnc(N)c2)cc1C(F)(F)F [Example 297, (S)-4-(4-((2-amino-2,4-dimethylpentyl)oxy)-3-(trifluoromethyl)phenyl)pyridin-2-amine] |
